biological target: T1, CLK3A (Homo sapiens, UniProt P49761); experiment: DSF Tm panel; assay type: binding; conditions: 10 μM compound
T1 construct: purchased in-house DSF kinase panel (SGC-style construct names; the trailing letter is the construct ID)
Experimental: (§1) The synthesized urea-based derivatives were evaluated in a panel of kinases by differential scanning fluorescence (DSF) to investigate their selectivity profile. A positive ΔT m in the DSF assay indicates stabilization of the protein upon ligand binding in comparison to its apo state, with higher thermal shifts generally correlating with stronger binding. For this purpose, we used our internal kinase selectivity panel (∼90 kinases) along with staurosporine as a positive control. […] This was also reflected in the overall low selectivity score (S) throughout the series, which is determined by the ratio between the number of kinases that are stabilized above 5 °C and the total number of kinases tested (Figure ). Motivated by these findings, we further validated the entire series by orthogonal binding and activity assays to determine the in vitro and cellular potency and selectivity of the developed series in comparison to the selected reference compounds. […]
(§2) was performed as previously described.[1,2] Briefly, recombinant protein kinase domains at a concentration of 2 μM were mixed with 10 μM compound in a buffer containing 20 mM HEPES, […]
(§3) probe (1 µl per mL). Subsequently, temperature-dependent protein unfolding profiles were […]
(§4) emission filters were set to 465 nm and 590 nm, respectively. The temperature was raised with a step rate of 3 °C per minute. […]
(§5) inflection point of the transition curve. […]
(§6) previously.[3] In brief, STK10, STK3, STK4 and SLK were obtained as plasmids cloned in […]
(§7) Plasmids were transfected into
(§8) KD concentration taken from TracerDB (tracerdb.org)[4] were pipetted into white 384-well

T1 sequence (P49761 127-484): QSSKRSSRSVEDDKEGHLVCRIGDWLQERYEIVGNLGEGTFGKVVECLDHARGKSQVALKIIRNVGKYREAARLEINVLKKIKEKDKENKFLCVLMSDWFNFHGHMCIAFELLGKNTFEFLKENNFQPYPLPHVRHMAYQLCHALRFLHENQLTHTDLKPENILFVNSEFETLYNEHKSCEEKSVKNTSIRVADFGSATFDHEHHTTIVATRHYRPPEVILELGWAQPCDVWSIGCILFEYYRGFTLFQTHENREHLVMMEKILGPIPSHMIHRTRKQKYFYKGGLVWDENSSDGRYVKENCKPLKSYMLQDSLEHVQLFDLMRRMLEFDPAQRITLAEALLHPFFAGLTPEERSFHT

SMILES | ΔTm at 10 µM
O=C(NCc1ccccc1)Nc1ccc2cc1OCCOCCNc1ccn3ncc-2c3n1 [compound 16] | 0.3 °C
O=C(NCc1ccccc1Cl)Nc1ccc2cc1OCCOCCNc1ccn3ncc-2c3n1 [compound 17] | 0.1 °C
O=C(NCc1cccc(Cl)c1)Nc1ccc2cc1OCCOCCNc1ccn3ncc-2c3n1 [compound 18] | 0.3 °C

biological target: T2, ULK1A (Homo sapiens, UniProt O75385); experiment: DSF Tm panel; assay type: binding; conditions: 10 μM compound
T2 construct: purchased in-house DSF kinase panel (SGC-style construct names; the trailing letter is the construct ID)
T2 sequence (O75385 1-283): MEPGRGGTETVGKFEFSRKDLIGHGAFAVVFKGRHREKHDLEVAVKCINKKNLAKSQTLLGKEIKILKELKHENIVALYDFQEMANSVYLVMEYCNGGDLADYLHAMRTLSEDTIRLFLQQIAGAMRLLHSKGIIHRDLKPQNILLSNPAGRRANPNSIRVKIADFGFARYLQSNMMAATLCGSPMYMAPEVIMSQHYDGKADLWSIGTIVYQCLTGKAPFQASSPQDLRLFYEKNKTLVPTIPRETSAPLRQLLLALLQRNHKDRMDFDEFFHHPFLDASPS
Experimental: as §1, §2, §3, §4, §5, §6, §7, §8

SMILES | ΔTm at 10 µM
O=C(NCc1ccccc1)Nc1ccc2cc1OCCOCCNc1ccn3ncc-2c3n1 [compound 16] | 0.6 °C
O=C(NCc1ccccc1Cl)Nc1ccc2cc1OCCOCCNc1ccn3ncc-2c3n1 [compound 17] | 0.3 °C
O=C(NCc1cccc(Cl)c1)Nc1ccc2cc1OCCOCCNc1ccn3ncc-2c3n1 [compound 18] | 0.3 °C

biological target: T3, CHEK2A (Homo sapiens, UniProt O96017); experiment: DSF Tm panel; assay type: binding; conditions: 10 μM compound
T3 construct: purchased in-house DSF kinase panel (SGC-style construct names; the trailing letter is the construct ID)
T3 sequence (O96017 210-531): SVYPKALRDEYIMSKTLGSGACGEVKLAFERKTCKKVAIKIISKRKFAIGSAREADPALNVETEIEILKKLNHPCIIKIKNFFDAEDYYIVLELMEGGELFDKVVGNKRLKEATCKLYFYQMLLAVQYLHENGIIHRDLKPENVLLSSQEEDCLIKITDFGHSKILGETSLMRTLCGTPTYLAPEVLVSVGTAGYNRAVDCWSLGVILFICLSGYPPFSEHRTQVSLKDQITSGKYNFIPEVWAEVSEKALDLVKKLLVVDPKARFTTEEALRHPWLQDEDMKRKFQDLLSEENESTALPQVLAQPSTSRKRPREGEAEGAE
Experimental: as §1, §2, §3, §4, §5, §6, §7, §8

SMILES | ΔTm at 10 µM
O=C(NCc1ccccc1)Nc1ccc2cc1OCCOCCNc1ccn3ncc-2c3n1 [compound 16] | 6.5 °C
O=C(NCc1ccccc1Cl)Nc1ccc2cc1OCCOCCNc1ccn3ncc-2c3n1 [compound 17] | 5.3 °C
O=C(NCc1cccc(Cl)c1)Nc1ccc2cc1OCCOCCNc1ccn3ncc-2c3n1 [compound 18] | 3.6 °C

biological target: T4, CAMK4A (Homo sapiens, UniProt Q16566); experiment: DSF Tm panel; assay type: binding; conditions: 10 μM compound
T4 construct: purchased in-house DSF kinase panel (SGC-style construct names; the trailing letter is the construct ID)
T4 sequence (Q16566 1-473): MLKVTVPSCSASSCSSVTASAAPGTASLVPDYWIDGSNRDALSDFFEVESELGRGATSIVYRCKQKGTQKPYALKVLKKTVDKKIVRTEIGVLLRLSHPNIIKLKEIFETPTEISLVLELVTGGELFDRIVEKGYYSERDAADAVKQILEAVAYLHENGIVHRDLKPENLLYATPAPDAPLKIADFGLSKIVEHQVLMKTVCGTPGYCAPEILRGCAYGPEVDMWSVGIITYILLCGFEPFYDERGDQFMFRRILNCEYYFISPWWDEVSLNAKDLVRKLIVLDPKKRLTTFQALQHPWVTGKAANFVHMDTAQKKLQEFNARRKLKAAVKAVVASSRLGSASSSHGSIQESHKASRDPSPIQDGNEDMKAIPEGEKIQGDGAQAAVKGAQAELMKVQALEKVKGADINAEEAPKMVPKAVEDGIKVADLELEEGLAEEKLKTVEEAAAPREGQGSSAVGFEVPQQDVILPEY
Experimental: as §1, §2, §3, §4, §5, §6, §7, §8

SMILES | ΔTm at 10 µM
O=C(NCc1ccccc1)Nc1ccc2cc1OCCOCCNc1ccn3ncc-2c3n1 [compound 16] | 0.5 °C
O=C(NCc1ccccc1Cl)Nc1ccc2cc1OCCOCCNc1ccn3ncc-2c3n1 [compound 17] | 0.6 °C
O=C(NCc1cccc(Cl)c1)Nc1ccc2cc1OCCOCCNc1ccn3ncc-2c3n1 [compound 18] | 1.3 °C

biological target: T5, PLK4A (Homo sapiens, UniProt O00444); experiment: DSF Tm panel; assay type: binding; conditions: 10 μM compound
T5 construct: purchased in-house DSF kinase panel (SGC-style construct names; the trailing letter is the construct ID)
T5 sequence (O00444 2-275): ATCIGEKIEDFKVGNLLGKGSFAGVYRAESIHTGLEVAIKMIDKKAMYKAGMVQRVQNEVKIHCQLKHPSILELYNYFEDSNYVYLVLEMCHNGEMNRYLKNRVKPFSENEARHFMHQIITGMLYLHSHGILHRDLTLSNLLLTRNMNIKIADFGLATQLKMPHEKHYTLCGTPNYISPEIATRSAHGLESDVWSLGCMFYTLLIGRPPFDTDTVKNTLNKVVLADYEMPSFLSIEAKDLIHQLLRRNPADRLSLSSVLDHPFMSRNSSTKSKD
Experimental: as §1, §2, §3, §4, §5, §6, §7, §8

SMILES | ΔTm at 10 µM
O=C(NCc1ccccc1)Nc1ccc2cc1OCCOCCNc1ccn3ncc-2c3n1 [compound 16] | 4.1 °C
O=C(NCc1ccccc1Cl)Nc1ccc2cc1OCCOCCNc1ccn3ncc-2c3n1 [compound 17] | 3.9 °C
O=C(NCc1cccc(Cl)c1)Nc1ccc2cc1OCCOCCNc1ccn3ncc-2c3n1 [compound 18] | 3.2 °C

biological target: T6, PAK4A (Homo sapiens, UniProt O96013); experiment: DSF Tm panel; assay type: binding; conditions: 10 μM compound
T6 construct: purchased in-house DSF kinase panel (SGC-style construct names; the trailing letter is the construct ID)
T6 sequence (O96013 291-591): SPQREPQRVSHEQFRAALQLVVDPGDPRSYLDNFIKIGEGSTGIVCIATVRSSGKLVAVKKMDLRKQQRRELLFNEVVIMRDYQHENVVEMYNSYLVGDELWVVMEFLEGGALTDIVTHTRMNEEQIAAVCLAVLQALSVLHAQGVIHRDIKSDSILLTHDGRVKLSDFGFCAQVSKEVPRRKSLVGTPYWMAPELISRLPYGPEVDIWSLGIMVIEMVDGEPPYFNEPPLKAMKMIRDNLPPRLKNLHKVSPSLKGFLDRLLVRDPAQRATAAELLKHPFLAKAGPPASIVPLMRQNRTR
Experimental: as §1, §2, §3, §4, §5, §6, §7, §8

SMILES | ΔTm at 10 µM
O=C(NCc1ccccc1)Nc1ccc2cc1OCCOCCNc1ccn3ncc-2c3n1 [compound 16] | -0.2 °C
O=C(NCc1ccccc1Cl)Nc1ccc2cc1OCCOCCNc1ccn3ncc-2c3n1 [compound 17] | 0 °C
O=C(NCc1cccc(Cl)c1)Nc1ccc2cc1OCCOCCNc1ccn3ncc-2c3n1 [compound 18] | 0.1 °C

biological target: T7, MAP2K4A (Homo sapiens, UniProt P45985); experiment: DSF Tm panel; assay type: binding; conditions: 10 μM compound
T7 construct: purchased in-house DSF kinase panel (SGC-style construct names; the trailing letter is the construct ID)
T7 sequence (P45985 102-367): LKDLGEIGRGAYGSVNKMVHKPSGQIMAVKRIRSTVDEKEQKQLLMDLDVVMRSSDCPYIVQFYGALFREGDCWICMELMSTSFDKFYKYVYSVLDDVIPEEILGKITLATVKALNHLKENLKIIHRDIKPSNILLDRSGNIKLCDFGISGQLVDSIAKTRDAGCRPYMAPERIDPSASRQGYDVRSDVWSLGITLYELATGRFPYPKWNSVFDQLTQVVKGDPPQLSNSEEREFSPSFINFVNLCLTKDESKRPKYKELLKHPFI
Experimental: as §1, §2, §3, §4, §5, §6, §7, §8

SMILES | ΔTm at 10 µM
O=C(NCc1ccccc1)Nc1ccc2cc1OCCOCCNc1ccn3ncc-2c3n1 [compound 16] | 5.2 °C
O=C(NCc1ccccc1Cl)Nc1ccc2cc1OCCOCCNc1ccn3ncc-2c3n1 [compound 17] | 5 °C
O=C(NCc1cccc(Cl)c1)Nc1ccc2cc1OCCOCCNc1ccn3ncc-2c3n1 [compound 18] | 4.1 °C

biological target: T8, STK17AA (Homo sapiens, UniProt Q9UEE5); experiment: DSF Tm panel; assay type: binding; conditions: 10 μM compound
T8 construct: purchased in-house DSF kinase panel (SGC-style construct names; the trailing letter is the construct ID)
T8 sequence (Q9UEE5 61-321): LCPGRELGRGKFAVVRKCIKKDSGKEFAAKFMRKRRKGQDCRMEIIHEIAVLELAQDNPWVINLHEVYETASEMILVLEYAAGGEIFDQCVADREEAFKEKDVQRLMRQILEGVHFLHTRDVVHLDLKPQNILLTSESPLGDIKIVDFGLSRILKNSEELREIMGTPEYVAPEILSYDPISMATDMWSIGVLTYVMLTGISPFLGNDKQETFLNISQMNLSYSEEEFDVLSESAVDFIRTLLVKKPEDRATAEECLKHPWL
Experimental: as §1, §2, §3, §4, §5, §6, §7, §8

SMILES | ΔTm at 10 µM
O=C(NCc1ccccc1)Nc1ccc2cc1OCCOCCNc1ccn3ncc-2c3n1 [compound 16] | 4.9 °C
O=C(NCc1ccccc1Cl)Nc1ccc2cc1OCCOCCNc1ccn3ncc-2c3n1 [compound 17] | 2.3 °C
O=C(NCc1cccc(Cl)c1)Nc1ccc2cc1OCCOCCNc1ccn3ncc-2c3n1 [compound 18] | 5.1 °C

biological target: T9, BMX (BMXA) (Homo sapiens, UniProt P51813); experiment: DSF Tm panel; assay type: binding; conditions: 10 μM compound
T9 construct: purchased in-house DSF kinase panel (SGC-style construct names; the trailing letter is the construct ID)
T9 sequence (P51813 411-675): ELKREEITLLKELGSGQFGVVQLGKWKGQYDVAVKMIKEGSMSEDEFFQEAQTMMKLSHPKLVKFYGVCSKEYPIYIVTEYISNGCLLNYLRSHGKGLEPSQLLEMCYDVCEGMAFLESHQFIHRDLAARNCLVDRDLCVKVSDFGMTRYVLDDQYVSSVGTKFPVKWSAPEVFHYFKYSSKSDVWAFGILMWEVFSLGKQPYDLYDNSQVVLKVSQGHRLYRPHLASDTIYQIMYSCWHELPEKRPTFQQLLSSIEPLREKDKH
Experimental: as §1, §2, §3, §4, §5, §6, §7, §8

SMILES | ΔTm at 10 µM
O=C(NCc1ccccc1)Nc1ccc2cc1OCCOCCNc1ccn3ncc-2c3n1 [compound 16] | 1.7 °C
O=C(NCc1ccccc1Cl)Nc1ccc2cc1OCCOCCNc1ccn3ncc-2c3n1 [compound 17] | 1.2 °C
O=C(NCc1cccc(Cl)c1)Nc1ccc2cc1OCCOCCNc1ccn3ncc-2c3n1 [compound 18] | 1.4 °C

biological target: T10, PIM3A (Homo sapiens, UniProt Q86V86); experiment: DSF Tm panel; assay type: binding; conditions: 10 μM compound
T10 construct: purchased in-house DSF kinase panel (SGC-style construct names; the trailing letter is the construct ID)
Experimental: as §1, §2, §3, §4, §5, §6, §7, §8

SMILES | ΔTm at 10 µM
O=C(NCc1ccccc1)Nc1ccc2cc1OCCOCCNc1ccn3ncc-2c3n1 [compound 16] | 2.4 °C
O=C(NCc1ccccc1Cl)Nc1ccc2cc1OCCOCCNc1ccn3ncc-2c3n1 [compound 17] | 2.4 °C
O=C(NCc1cccc(Cl)c1)Nc1ccc2cc1OCCOCCNc1ccn3ncc-2c3n1 [compound 18] | 3 °C

biological target: T11, FGFR1B (Homo sapiens, UniProt P11362); experiment: DSF Tm panel; assay type: binding; conditions: 10 μM compound
T11 construct: purchased in-house DSF kinase panel (SGC-style construct names; the trailing letter is the construct ID)
T11 sequence (P11362 456-767): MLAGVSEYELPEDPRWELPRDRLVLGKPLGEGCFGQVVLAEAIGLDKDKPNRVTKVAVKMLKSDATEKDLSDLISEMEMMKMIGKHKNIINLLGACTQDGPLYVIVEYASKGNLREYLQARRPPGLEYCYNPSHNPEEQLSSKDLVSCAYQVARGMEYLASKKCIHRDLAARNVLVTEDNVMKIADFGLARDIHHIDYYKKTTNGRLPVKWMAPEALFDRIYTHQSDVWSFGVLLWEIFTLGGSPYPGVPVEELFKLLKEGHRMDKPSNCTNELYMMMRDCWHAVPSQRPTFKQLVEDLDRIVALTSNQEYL
Experimental: as §1, §2, §3, §4, §5, §6, §7, §8

SMILES | ΔTm at 10 µM
O=C(NCc1ccccc1)Nc1ccc2cc1OCCOCCNc1ccn3ncc-2c3n1 [compound 16] | 2.4 °C
O=C(NCc1ccccc1Cl)Nc1ccc2cc1OCCOCCNc1ccn3ncc-2c3n1 [compound 17] | 0.6 °C
O=C(NCc1cccc(Cl)c1)Nc1ccc2cc1OCCOCCNc1ccn3ncc-2c3n1 [compound 18] | 2 °C

— article PMC12621043, “Un-LOK-ing a New Approach for Conformational Selective Targeting of STK10 (LOK)” (ACS Medicinal Chemistry Letters, 2025)
